Test results reported in patent US5795561A, “Radioiodinated phospholipid ether analogues” (The Board of Regents of the University of Michigan, priority 1994, dated 1998).
Where two headings read alike, the source gives them in different places. One block for each molecule: values may come before it.

How the values were obtained:
[1] = tested on: Walker 256 sarcoma; details: rat, in vivo
Source text: (§2) Both types of lesions were located in the thigh of the rat. Tumor bearing lesions were produced by implantation of Walker 256 sarcoma cells and inflammatory granuloma lesions were developed using carrageenan irritation in accordance with the method described by Atkinson, et al., Agents and Actions, Vol. 8, pages 263-267, 1978.

[2] = Tissue distribution 24 hours after I.V. administration to rats bearing the Walker-256 carcinosarcoma (Tables 5 and 6); assay type: in vivo, Sprague-Dawley rats; details: rat, iv, tumor-bearing rats
Protocol: Tissue distribution studies were conducted with the alkyl lysophospholipid analogues of general Formula II.

[3] = Tissue distribution of radioactivity after IV administration in normal (control) rats (Tables 1-4); assay type: in vivo, female Sprague Dawley rats; details: rat, 125I-labelled; for tissue uptake at 6 h: 6 hours after IV, N = 3, mean ± standard error; for tissue uptake at 24 h: 24 hours after IV
Protocol: (§1) Radiolabelled compounds 1-[12-(m-iodophenyl)-dodecyl]-2-methyl-rac-glycero-3-phosphocholine (ET-12IP-OMe; Example 2, compound 18) and 1-[12-(m-iodophenyl)-dodecyl]-propanediol-3-phosphocholine (ET-12IP-OH; Example 3, compound 24) were prepared and administered to two sets of female Sprague Dawley rats: normal rats (control) and rats bearing tumors resulting from Walker 256 sarcoma cells which had been implanted into the thigh. The labelled compounds (5-35 μCi ^125 I) were administered intravenously in a 2% Tween 20-saline vehicle. At various times following administration the animals were sacrificed, and selected tissue samples were removed. The tissue samples were weighed and placed in cellulose acetate capsules. The radioactivity was then counted (85% efficiency) using a well scintillation counter (Searle 1185).

[4] = tested on: Walker 256 sarcoma; assay: Tissue distribution of radioactivity after IV administration in rats bearing Walker 256 sarcoma (Tables 1-4); assay type: in vivo, female Sprague Dawley rats
Protocol: as §1

[5] = as above; assay type: in vivo, female Sprague Dawley rats; details: rat, 125I-labelled; for tissue uptake at 6 h: 6 hours after IV; for tissue uptake at 24 h: 24 hours after IV
Protocol: as §1

[6] = tested on: inflammatory granuloma lesions; details: rat, in vivo
Source text: as §2

[7] = tested on: human HTB 77 ovarian adenocarcinoma, NCI 69 human small cell carcinoma, and human HTB 63 melanoma; assay: In vivo tumor localization and scintigraphy in athymic nude mice with subcutaneous human tumors (Example 8)
[8] = tested on: Walker 256 sarcomas; assay: In vivo tumor localization in rats with intramuscular Walker 256 sarcomas (Example 8); design: species or system Sprague-Dawley rats; details: intravenous injection
Protocol: 12-(m-Iodophenyl)dodecyl phosphocholine (compound 50) was administered by intravenous injection to Sprague-Dawley rats with intramuscular Walker 256 sarcomas and athymic nude mice with subcutaneous human tumors, specifically, human HTB 77 ovarian adenocarcinoma, NCI 69 human small cell carcinoma, and human HTB 63 melanoma.

[9] = tested on: human tumor models; assay: Tissue distribution in athymic mice human tumor models (FIG. 17); assay type: in vivo, athymic nude mice; details: 13 days post-administration, % dose/gram of tissue plotted (FIG. 17)
Protocol: FIG. 17 is a bar graph showing tissue distribution in the blood, liver, and specified tumor tissue of radioiodinated 12-(m-iodophenyl)-dodecyl phosphocholine in nude mice 13 days post-administration; and
Tumor:blood levels greater than 25:1 were recorded in all athymic mice human tumor models.
FIG. 17 is a bar graph showing the tissue distribution in the blood, liver, and specified tumor tissue of compound 50 in nude mice 13 days post-administration. The data is expressed in terms of % dose/gram of tissue.

[10] = tested on: HTB 63 human melanoma tumors; assay: Tissue distribution in nude mice bearing HTB 63 human melanoma tumors (FIG. 18); assay type: in vivo; details: 13 days post-injection (FIG. 18)
Source text: FIG. 18 is a bar graph showing tissue distribution of radioiodinated 12-(m-iodophenyl)-dodecyl phosphocholine in nude mice bearing HTB 63 human melanoma tumors at 13 days post-injection.
FIG. 18 is a bar graph which vividly illustrates the relative difference in tissue concentration of compound 50 in nude mice bearing HTB 63 human melanoma tumors at 13 days post-injection. The tissue concentration in the tumor tissue is remarkable.

[11] = tested on: tumor; details: background; cited from earlier work
[12] = tested on: Walker 256 sarcoma; assay: Gamma-camera scintigraphy in tumor-bearing rats
Source text: as §2

[13] = tested on: inflammatory granuloma lesions; assay: Gamma-camera scintigraphy in rats bearing inflammatory lesions (granuloma)
Source text: as §2

[14] = adrenal, read-out: Distribution of radioactivity: adrenal
[15] = blood, read-out: Distribution of radioactivity: blood
[16] = read-out: Distribution of radioactivity: tumor
[17] = kidney, read-out: Distribution of radioactivity: kidney
[18] = liver, read-out: Distribution of radioactivity: liver
[19] = lung, read-out: Distribution of radioactivity: lung
[20] = muscle, read-out: Distribution of radioactivity: muscle
[21] = thyroid, read-out: Distribution of radioactivity: thyroid
[22] = blood, read-out: Radioactivity in blood
[23] = kidney, read-out: Radioactivity in kidney
[24] = liver, read-out: Radioactivity in liver
[25] = lung, read-out: Radioactivity in lung
[26] = muscle, read-out: Radioactivity in muscle
[27] = blood, tumor-bearing rats, N = 3, mean ± standard error, read-out: Radioactivity in blood
[28] = kidney, tumor-bearing rats, N = 3, mean ± standard error, read-out: Radioactivity in kidney
[29] = liver, tumor-bearing rats, N = 3, mean ± standard error, read-out: Radioactivity in liver
[30] = lung, tumor-bearing rats, N = 3, mean ± standard error, read-out: Radioactivity in lung
[31] = muscle, tumor-bearing rats, N = 3, mean ± standard error, read-out: Radioactivity in muscle
[32] = walker 256 tumor, Walker 256 sarcoma implanted in thigh, N = 3, mean ± standard error, read-out: Radioactivity in tumor
[33] = whole body scans 24 hours after administration

SMILES: CCCCCCCCCCCCCCCCOP(=O)([O-])OCC[N+](C)(C)Cc1cccc(I)c1 [Compound 60, hexadecyl-2-[N,N-dimethyl-N-(m-iodobenzyl)-ammonium] ethylphosphate]
localization in tumor tissues ([7]; similar studies to those with compound 50 (rat and athymic mouse models)): exhibited localization in tumor tissues

SMILES: C[N+](C)(C)CCOP(=O)([O-])OCCCOCCCCCCCCCCCCc1cccc([125I])c1 [ET-12IP-H, 1-[12-(m-iodophenyl)-dodecyl]-propanediol-3-phosphocholine]
tissue uptake at 24 h [2, 14]: 0.274 %ID/g | tissue uptake at 24 h [2, 15]: 0.036 %ID/g | tissue uptake at 24 h [2, 16]: 0.463 %ID/g | tissue uptake at 24 h [2, 17]: 0.235 %ID/g | tissue uptake at 24 h [2, 18]: 0.139 %ID/g | tissue uptake at 24 h [2, 19]: 0.105 %ID/g | tissue uptake at 24 h [2, 20]: 0.014 %ID/g | tissue uptake at 24 h [2, 21]: 8.45 %ID/g | tissue uptake at 6 h [3, 22]: 0.475 ± 0.078 %ID/g | tissue uptake at 24 h ([3]; blood, N = 3, mean ± standard error (Table 4), read-out: Radioactivity in blood): 0.047 ± 0.035 %ID/g | tissue uptake at 6 h [3, 23]: 2.6 ± 0.107 %ID/g | tissue uptake at 24 h ([3]; kidney, N = 3, mean ± standard error (Table 4), read-out: Radioactivity in kidney): 0.257 ± 0.01 %ID/g | tissue uptake at 6 h [3, 24]: 1.35 ± 0.047 %ID/g | tissue uptake at 24 h ([3]; liver, N = 3, mean ± standard error (Table 4), read-out: Radioactivity in liver): 0.142 ± 0.033 %ID/g | tissue uptake at 6 h [3, 25]: 0.816 ± 0.031 %ID/g | tissue uptake at 24 h ([3]; lung, N = 3, mean ± standard error (Table 4), read-out: Radioactivity in lung): 0.129 ± 0.013 %ID/g | tissue uptake at 6 h [3, 26]: 0.083 ± 0.009 %ID/g | tissue uptake at 24 h ([3]; muscle, N = 3, mean ± standard error (Table 4), read-out: Radioactivity in muscle): 0.025 ± 0.001 %ID/g | tissue uptake at 6 h [5, 27]: 0.239 ± 0.024 %ID/g | tissue uptake at 24 h ([5]; blood, tumor-bearing rats, N = 3, mean ± standard error (Table 4), read-out: Radioactivity in blood): 0.036 ± 0.004 %ID/g | tissue uptake at 6 h [5, 28]: 1.77 ± 0.108 %ID/g | tissue uptake at 24 h ([5]; kidney, tumor-bearing rats, N = 3, mean ± standard error (Table 4), read-out: Radioactivity in kidney): 0.235 ± 0.018 %ID/g | tissue uptake at 6 h [5, 29]: 0.892 ± 0.083 %ID/g | tissue uptake at 24 h ([5]; liver, tumor-bearing rats, N = 3, mean ± standard error (Table 4), read-out: Radioactivity in liver): 0.139 ± 0.01 %ID/g | tissue uptake at 6 h [5, 30]: 0.525 %ID/g | tissue uptake at 24 h ([5]; lung, tumor-bearing rats, N = 3, mean ± standard error (Table 4), read-out: Radioactivity in lung): 0.105 %ID/g | tissue uptake at 6 h [5, 31]: 0.05 ± 0.009 %ID/g | tissue uptake at 24 h ([5]; muscle, tumor-bearing rats, N = 3, mean ± standard error (Table 4), read-out: Radioactivity in muscle): 0.014 ± 0.001 %ID/g | tissue uptake at 6 h [5, 32]: 1.03 ± 0.158 %ID/g | tissue uptake at 24 h ([5]; walker 256 tumor, Walker 256 sarcoma implanted in thigh, N = 3, mean ± standard error (Table 4), read-out: Radioactivity in tumor): 0.463 ± 0.063 %ID/g

The next lines start with results.

localization in tumor [1]: capable of localizing in the tumor | tissue uptake at 6 h [3, 22]: 0.105 ± 0.009 %ID/g | tissue uptake at 24 h ([3]; blood, N = 4, mean ± standard error, read-out: Radioactivity in blood): 0.085 ± 0.001 %ID/g | tissue uptake at 6 h [3, 23]: 0.65 ± 0.114 %ID/g | tissue uptake at 24 h ([3]; kidney, N = 4, mean ± standard error, read-out: Radioactivity in kidney): 0.426 ± 0.03 %ID/g | tissue uptake at 6 h [3, 24]: 1.74 ± 0.125 %ID/g | tissue uptake at 24 h ([3]; liver, N = 4, mean ± standard error, read-out: Radioactivity in liver): 0.675 ± 0.02 %ID/g | tissue uptake at 6 h [3, 25]: 0.356 ± 0.012 %ID/g | tissue uptake at 24 h ([3]; lung, N = 4, mean ± standard error, read-out: Radioactivity in lung): 0.218 ± 0.01 %ID/g | tissue uptake at 6 h [3, 26]: 0.023 %ID/g | tissue uptake at 24 h ([3]; muscle, N = 4, mean ± standard error, read-out: Radioactivity in muscle): 0.034 ± 0.004 %ID/g | tissue uptake at 6 h [5, 27]: 0.231 ± 0.008 %ID/g | tissue uptake at 24 h [5, 27]: 0.096 ± 0.023 %ID/g | tissue uptake at 6 h [5, 28]: 1.31 ± 0.091 %ID/g | tissue uptake at 24 h [5, 28]: 0.463 ± 0.111 %ID/g | tissue uptake at 6 h [5, 29]: 3.59 ± 0.189 %ID/g | tissue uptake at 24 h [5, 29]: 0.743 ± 0.105 %ID/g | tissue uptake at 6 h [5, 30]: 0.873 ± 0.081 %ID/g | tissue uptake at 24 h [5, 30]: 0.299 ± 0.017 %ID/g | tissue uptake at 6 h [5, 31]: 0.046 ± 0.001 %ID/g | tissue uptake at 24 h [5, 31]: 0.027 ± 0.006 %ID/g | tissue uptake at 6 h [5, 32]: 1.12 ± 0.024 %ID/g | tissue uptake at 24 h [5, 32]: 1.11 ± 0.016 %ID/g
SMILES: COC(COCCCCCCCCCCCCc1cccc([125I])c1)COP(=O)([O-])OCC[N+](C)(C)C (racemic) [ET-12IP-OMe, 1-[12-(m-iodophenyl)-dodecyl]-2-methyl-rac-glycero-3-phosphocholine]
tissue uptake at 24 h [2, 14]: 0.436 %ID/g | tissue uptake at 24 h [2, 15]: 0.096 %ID/g | tissue uptake at 24 h [2, 16]: 1.11 %ID/g | tissue uptake at 24 h [2, 17]: 0.463 %ID/g | tissue uptake at 24 h [2, 18]: 0.743 %ID/g | tissue uptake at 24 h [2, 19]: 0.299 %ID/g | tissue uptake at 24 h [2, 20]: 0.027 %ID/g | tissue uptake at 24 h [2, 21]: 7.34 %ID/g | clearance of radioactivity from tissues ([4]; by 24 hours): radioactivity had cleared significantly from all of the tissues except for tumor tissue | tissues with the highest concentrations of radioactivity ([4]; six hours following administration): liver, kidney, and tumor tissues exhibiting the highest concentrations | localization in the inflammatory lesion [6]: little activity was associated with this area

tumor localization ([7]; intravenous injection): excellent tumor localization | tumor localization [8]: excellent tumor localization | tissue concentration in the tumor tissue [10]: remarkable
SMILES: C[N+](C)(C)CCOP(=O)([O-])OCCCCCCCCCCCCc1cccc(I)c1 [compound 50, 12-(m-iodophenyl)-dodecyl phosphocholine]
clearance of background activity ([7]; beyond five days post-injection): all background activity had cleared from the liver and gastrointestinal tract | tissue distribution in blood, liver and specified tumor tissue [9]: the tumor contained the largest amount of radioactivity

accumulation in tumor (scintigraphic scan) ([12]; 24 hours after administration): high accumulation | accumulation in liver (scintigraphic scan) ([12]; tumor-bearing rat, 24 hours after administration): low accumulation | localization in tumor [12, 33]: capable of localizing in the tumor | accumulation in granuloma (inflammatory lesion), scintigraphic scan ([13]; 24 hours after administration, for ET-12IP-OMe in relation to liver): high accumulation | accumulation in liver (scintigraphic scan) ([13]; granuloma-bearing rat, 24 hours after administration): high accumulation
SMILES: O=C([O-])CC(O)(CC(=O)[O-])C(=O)[O-].[67Ga+3] [gallium-67 citrate]
accumulation in inflammatory lesions [11]: also accumulates in a variety of other inflammatory lesions | alteration of distribution by steroidal and antineoplastic drugs [11]: can be altered by a variety of steroidal and antineoplastic drugs | localization in tumor [11]: will localize, or accumulate, in a tumor | localization in the inflammatory lesion [13, 33]: found to localize in the inflammatory lesion
